Columns and labels:
Pferdethrombin = test: Thrombin time (clotting of human citrate plasma with thrombin reagent, ball coagulometer); assay type: biochemical, Pferd; conditions: thrombin time as difference to control (control ca. 24 Sek.), test stopped at 5 Min.; for TT2.5: 2.5 µM in final volume; for TT25: 25 µM in final volume; for TT250: 250 µM in final volume
Experimental: Ein in der klinischen Gerinnungsdiagnostik gebräuchlicher Test ist die Thrombinzeit. Dieser Parameter erfaßt die Thrombinwirkung auf Fibrinogen und die Gerinnselbildung. Inhibitoren von Thrombin bewirken eine Verlängerung der Thrombinzeit.
Zur Plasmagewinnung wurden 9 Teile frisches Blut gesunder Spender mit einem Teil Natriumcitratlösung (0.11 Mol/l) gemischt und bei ca. 3000 U/min 10 Min. bei Raumtemperatur zentrifugiert. Das Plasma wurde abpipettiert und kann bei Raumtemperatur ca. 8 h aufbewahrt werden.
200 µl Citratplasma wurden in einem Kugelkoagulometer (KC 10 der Firma Amelung) 2 Min. bei 37 °C inkubiert, Zu 190 µl vortemperiertem Thrombin-Reagenz (Boehringer Mannheim GmbH; enthält ca. 3 U/ml Pferdethrombin und 0.0125 M Ca^++) gab man 10 µl Dimethylsulfoxid (DMSO) oder eine Lösung der Wirksubstanz in DMSO. Mit Zugabe dieser 200 µl Lösung zum Plasma wurde eine Stoppuhr gestartet und der Zeitpunkt bis zum Eintritt der Gerinnung bestimmt. Die Thrombinzeit betrug bei den Kontrollmessungen ca. 24 Sek. und wurde durch die Wirksubstanzen deutlich verlängert. War die Thrombinzeit in Gegenwart einer Beispielverbindung länger als 5 Min.. wurde der Versuch abgebrochen.
In der folgenden Tabelle sind die gemessenen Thrombinzeiten in Sekunden als Differenz zur Kontrolle angegeben. Die Konzentrationen der Wirksubstanzen betrugen im Endvolumen 250 µM (TT250), 25 µM (TT25) und 2.5 µM (TT2.5).

humanem α-Thrombin = target: T1, humanem α-Thrombin (Homo sapiens, UniProt P00734); test: Thrombin inhibition, kinetic measurement with chromogenic substrate S-2238; assay type: biochemical; conditions: 0,1 M phosphate buffer, pH = 7.5, 25 °C, substrate H-(D)-Phe-Pro-Arg-pNA (S-2238)
T1 construct: humanem α-Thrombin (Sigma, spezifische Aktivität = 2150 NIH-units/mg); purchased Sigma
Experimental: Die kinetischen Messungen wurden in 0,1 M Phosphatpuffer, der 0.2 M Kochsalz und 0.5 % Polyethylenglycol 6000 enthielt. bei einem pH = 7.5 und 25 °C mit dem Substrat H-(D)-Phe-Pro-Arg-pNA (S-2238 Kabi) und humanem α-Thrombin (Sigma, spezifische Aktivität = 2150 NIH-units/mg) in Polystyrol-Halbmikroküvetten in einem Gesamtvolumen von 1 ml durchgeführt.
In einem Vorversuch wurde mit jeder Wirksubstanz bestimmt, ob sie Thrombin schnell oder langsam inhibiert. Dazu wurde die Reaktion einmal durch Zugabe von 0.03 NIH-units Thrombin zu einer 100 µM-Lösung des Substrats und des Wirkstoffs gestartet. In einem zweiten Versuch wurde Substrat zu einer 5 Min. inkubierten Lösung des Thrombins und des Wirkstoffs gegeben. Die Zunahme der Konzentration von p-Nitroanilin mit der Zeit wurde spektroskopisch (UV-VIS-Spektrophotometer Lambda-2 der Firma Perkin-Elmer) bei 405 nm 12 Min. verfolgt. Da die bei beiden Versuchen erhaltenen Messkurven linear und parallel waren, handelt es sich bei den Wirkstoffen der folgenden Tabelle um schnelle Thrombin-Inhibitoren. Die Inhibitionskonstanten Ki wurden dann wie folgt bestimmt. Das Substrat wurde in den Konzentrationen 100 µM, 50 µM. 30 µM, 20 µM eingesetzt und bei jeder Substratkonzentration eine Messung ohne Inhibitor und drei Messungen in Gegenwart unterschiedlicher Konzentrationen der in der folgenden Tabelle aufgeführten Inhibitoren durchgeführt. Die Reaktionen wurden durch Zugabe von Thrombin gestartet. Die Zunahme der Extinktion bei 405 nm durch das entstehende p-Nitroanilin über einen Zeitraum von 12 Min. verfolgt. Im Abstand von 20 Sek. wurden Meßpunkte (Zeit vs. Extinktion) auf einen PC übertragen. Aus den Daten wurden die Geschwindigkeiten Vo (Extinktionsänderung pro Sek.: Messungen ohne Inhibitor) und Vi (Messungen mit Inhibitor) durch lineare Regression bestimmt. Benutzt wurde nur der Teil jeder Messung. bei dem sich die Substratkonzentration um weniger als 15 % vermindert hatte. Aus einer Meßreihe (konstante Inhibitorkonzentration, variable Substratkonzentrationen) bestimmte man Km' und Vmax durch nichtlinearen Fit auf die Gleichung V =(Vmax ∗ [S])/([S] + Km ') [formula]
Aus den gesamten Meßreihen berechnete man schließlich Ki durch nichtlinearen Fit auf die Gleichung V =(Vmax ∗ [S])/(Km ∗ (1 + […] ) + [S]) [formula] Die Michaeliskonstante Km betrug in allen Messungen 3.8 ± 2 µM. Die Inhibitionskonstanten Ki der Wirksubstanzen sind in der folgenden Tabelle in der Einheit µM angegeben.

O=S(=O)(Nc1cccc(OCCNc2ccncc2)c1)c1cccc2ccccc12 [Beispiel 2, N-{3-[2-(Pyridin-4-ylamino)-ethoxy]-phenyl}-1-naphthalin-sulfonamid]
TT2.5 (Pferdethrombin): 6 Sekunden | TT25 (Pferdethrombin): 40 Sekunden | TT250 (Pferdethrombin): 150 Sekunden | Ki (humanem α-Thrombin): 300 nM

O=S(=O)(Nc1cccc(OCCNc2ccncc2)c1)C1CCCCC1 [Beispiel 8, N-{3-[2-(Pyridin-4-ylamino)-ethoxy]-phenyl}-cyclohexan-sulfonamid]
TT2.5 (Pferdethrombin): 13 Sekunden | TT25 (Pferdethrombin): 58 Sekunden | TT250 (Pferdethrombin): 288 Sekunden | Ki (humanem α-Thrombin): 1000 nM

CC(CNc1ccncc1)Oc1cccc(NS(=O)(=O)c2ccccc2)c1 (centres unmarked) [Beispiel 10, N-{3-[1-Methyl-2-(pyridin-4-ylamino)-ethoxy]-phenyl}-benzolsulfonamid]
TT2.5 (Pferdethrombin): 7 Sekunden | TT25 (Pferdethrombin): 43 Sekunden | TT250 (Pferdethrombin): 157 Sekunden | Ki (humanem α-Thrombin): 3000 nM

O=S(=O)(c1ccccc1)N(Cc1ccccc1)c1cccc(OCCNc2ccncc2)c1 [Beispiel 15, N-Benzyl-N-{3-[2-(pyridin-4-ylamino)-ethoxy]-phenyl}-benzolsulfonamid]
TT2.5 (Pferdethrombin): 15 Sekunden | TT25 (Pferdethrombin): 144 Sekunden | TT250 (Pferdethrombin): 270 Sekunden | Ki (humanem α-Thrombin): 130 nM

COc1ccc(OCCNc2ccncc2)cc1NS(=O)(=O)c1ccccc1 [Beispiel 59, N-{2-Methoxy-5-[2-(pyridin-4-ylamino)-ethoxy]-phenyl}-benzolsulfonamid]
TT2.5 (Pferdethrombin): 0 Sekunden | TT25 (Pferdethrombin): 8 Sekunden | TT250 (Pferdethrombin): 53 Sekunden | Ki (humanem α-Thrombin): 6000 nM

Cc1ccc(OCCNc2ccncc2)cc1NS(=O)(=O)c1ccccc1 [Beispiel 60, N-{2-Methyl-5-[2-(pyridin-4-ylamino)-ethoxy]-phenyl}-benzolsulfonamid]
TT2.5 (Pferdethrombin): 13 Sekunden | TT25 (Pferdethrombin): 62 Sekunden | TT250 (Pferdethrombin): 137 Sekunden | Ki (humanem α-Thrombin): 600 nM

Cc1cc(OCCN(C)c2ccncc2)cc(OS(=O)(=O)c2ccccc2Cl)c1 [Beispiel 72, 2-Chlorbenzolsulfonsäure-5-methyl-3-[2-(N-methyl-pyridin-4-ylamino)-ethoxy]-phenylester]
TT2.5 (Pferdethrombin): 159 Sekunden | TT25 (Pferdethrombin): 300 Sekunden | TT250 (Pferdethrombin): 300 Sekunden | Ki (humanem α-Thrombin): 24 nM

O=S(=O)(Nc1cc(NCCNc2ccncc2)cc(C(F)(F)F)c1)c1ccccc1 [Beispiel 79, N-{3-[2-(Pyridin-4-ylamino)-ethylamino]-5-trifluormethyl-phenyl}-benzolsulfonamid]
TT2.5 (Pferdethrombin): 0 Sekunden | TT25 (Pferdethrombin): 8 Sekunden | TT250 (Pferdethrombin): 30 Sekunden | Ki (humanem α-Thrombin): 5000 nM

COc1cc(OCCNc2ccncc2)cc(S(=O)(=O)N(C)c2ccccc2)c1 [Beispiel 80, 3-Methoxy-N-methyl-N-phenyl-5-[2-(pyridin-4-ylamino)-ethoxy]-benzolsulfonamid]
TT2.5 (Pferdethrombin): 44 Sekunden | TT25 (Pferdethrombin): 213 Sekunden | TT250 (Pferdethrombin): 300 Sekunden | Ki (humanem α-Thrombin): 150 nM

COc1cc(OCCNc2ccncc2)cc(N(C)S(=O)(=O)c2ccccc2)c1 [Beispiel 83, N-Methyl-N-{3-[2-(pyridin-4-ylamino)-ethoxy]-5-methoxy-phenyl}-benzolsulfonamid]
TT2.5 (Pferdethrombin): 48 Sekunden | TT25 (Pferdethrombin): 192 Sekunden | TT250 (Pferdethrombin): 300 Sekunden | Ki (humanem α-Thrombin): 100 nM

O=S(=O)(c1cc(Cl)cc(NCCNc2ccncc2)c1)N(Cc1ccccc1)c1ccccc1 [Beispiel 86, 3-Chlor-N-benzyl-N-phenyl-5-[2-(pyridin-4-ylamino)-ethylamino]-benzolsulfonamid]
TT2.5 (Pferdethrombin): 11 Sekunden | TT25 (Pferdethrombin): 167 Sekunden | TT250 (Pferdethrombin): 300 Sekunden | Ki (humanem α-Thrombin): 40 nM

O=S(=O)(Nc1cc(Br)cc(NCCNc2ccncc2)c1)c1ccccc1 [Beispiel 89, N-{3-[2-(Pyridin-4-ylamino)-ethylamino]-5-brom-phenyl}-benzolsulfonamid]
TT2.5 (Pferdethrombin): 6 Sekunden | TT25 (Pferdethrombin): 38 Sekunden | TT250 (Pferdethrombin): 132 Sekunden | Ki (humanem α-Thrombin): 1000 nM

CCc1cc(OCCNc2ccncc2)cc(OS(=O)(=O)c2ccccc2)c1 [Beispiel 90, Benzolsulfonsäure-3-ethyl-5-[2-(pyridin-4-ylamino)-ethoxy]-phenyl-ester]
TT2.5 (Pferdethrombin): 125 Sekunden | TT25 (Pferdethrombin): 300 Sekunden | TT250 (Pferdethrombin): 300 Sekunden | Ki (humanem α-Thrombin): 24 nM

Cc1cc(OCCNc2ccncc2)cc(N(CCN)S(=O)(=O)c2ccccc2)c1 [Beispiel 100, N-(2-Aminoethyl)-N-{3-[2-(pyridin-4-ylamino)-ethoxy]-5-methyl-phenyl}-benzolsulfonamid]
TT2.5 (Pferdethrombin): 186 Sekunden | TT25 (Pferdethrombin): 300 Sekunden | TT250 (Pferdethrombin): 300 Sekunden | Ki (humanem α-Thrombin): 83 nM

Cc1cc(OCCNc2ccncc2)cc(N(CCCCCC(=O)O)S(=O)(=O)c2ccccc2)c1 [Beispiel 108, 6-(Benzolsulfonyl-{3-methyl-5-[2-(pyridin-4-yl-amino)-ethoxy]-phenyl}-amino)-hexansäure]
TT2.5 (Pferdethrombin): 62 Sekunden | TT25 (Pferdethrombin): 300 Sekunden | TT250 (Pferdethrombin): 300 Sekunden | Ki (humanem α-Thrombin): 55 nM

Cc1cc(OCCNc2ccncc2)cc(N(C)S(=O)(=O)c2ccccc2OCC(=O)O)c1 [Beispiel 124]
TT2.5 (Pferdethrombin): 104 Sekunden | TT25 (Pferdethrombin): 300 Sekunden | TT250 (Pferdethrombin): 300 Sekunden | Ki (humanem α-Thrombin): 250 nM

CCOC(=O)N(c1cc(C)cc(OCCNc2ccncc2)c1)S(=O)(=O)c1ccccc1OC [Beispiel 125, N-Ethoxycarbonyl-N-{3-methyl-5-[2-(pyridin-4-ylamino)-ethoxy]-phenyl}-2-methoxybenzolsulfonamid]
TT2.5 (Pferdethrombin): 73 Sekunden | TT25 (Pferdethrombin): 273 Sekunden | TT250 (Pferdethrombin): 300 Sekunden | Ki (humanem α-Thrombin): 150 nM

— patent publication EP0687253B1, “4-AMINOPYRIDINES, PROCESS FOR PREPARING THE SAME AND MEDICAMENTS CONTAINING THE SAME” (BOEHRINGER MANNHEIM GMBH, priority 1993, dated 1994)
